The values that follow come from PubChem BioAssay (NCI).

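Interpolation was linear, between the two tested concentrations surrounding the appropriate level; five concentrations were tested over 48 hours in 96-well plates. At the GI50, growth is halved. TGI is the concentration that stops growth completely.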 Where a SMILES comes first, the peptide text is derived from it. Bridges are numbered along the chain shown (N, C = ends). Roman numbers before positions name the chains, in order. [ ]: non-standard residue; d: D form. The star is where a group is joined. Quinoxaline2carbonyl = O=C(c1cnc2ccccc2n1)*; NMeV = CN[CH](C(=O)O)C(C)C; NMeC = CN[CH](CS)C(=O)O Bounds are passed on as bounds.

Some test systems named below: HL-60(TB) leukemia; HOP-62 NSCLC; HS 578T breast; LOX IMVI melanoma; NCI/ADR-RES ovarian; PC-3 prostate; SF-295 CNS; SF-539 CNS.
What all share (experiment): inhibition of tumour cell growth, NCI panel, 48 h

Consider `CC1NC(=O)C(NC(=O)c2cnc3ccccc3n2)COC(=O)C(C(C)C)N(C)C(=O)C2CSSCC(C(=O)N(C)C(C(C)C)C(=O)OCC(NC(=O)c3cnc4ccccc4n3)C(=O)NC(C)C(=O)N2C)N(C)C1=O` (configuration not stated) (I: Quinoxaline2carbonyl-SA[NMeC][NMeV] / II: Quinoxaline2carbonyl-SA[NMeC][NMeV]; ester I:1-II:C, I:C-II:1; disulfide I:3-II:3; configuration not given here), for which the TGI in the experiment on HL-60(TB) leukemia was under 0.01 µM; with HOP-62 NSCLC it was 2.27 µM; in the experiment on HS 578T breast, under 0.01 µM; in the experiment with LOX IMVI melanoma, 10.2 µM; in the experiment with NCI/ADR-RES ovarian, 0.662 µM; in the experiment with PC-3 prostate, 1.68 µM. Besides, the TGI with SF-295 CNS is 16.9 µM.

In the case of `CN(CC(N)=O)C(=O)N(CCCl)N=O`, the TGI with HL-60(TB) leukemia, in the experiment with HOP-62 NSCLC, in the experiment with HS 578T breast, in the experiment with LOX IMVI melanoma, in the experiment with NCI/ADR-RES ovarian and in the experiment with PC-3 prostate was over 100 µM in each case. Besides, the TGI in the experiment on SF-295 CNS and in the experiment on SF-539 CNS was over 100 µM throughout.

As to `C#CCOc1cccc(Nc2ncnc3c(NC(=O)CCl)cccc23)c1`, the GI50 with HL-60(TB) leukemia is 17.5 µM; in the experiment with HOP-62 NSCLC, 25.8 µM; in the experiment with HS 578T breast it was 24.2 µM; with LOX IMVI melanoma, 1.7 µM; with NCI/ADR-RES ovarian it was 32 µM; in the experiment on PC-3 prostate, 22.8 µM. Moreover, the results for the GI50 in the experiment with SF-295 CNS and with SF-539 CNS were 17.4 µM and 16.6 µM, respectively. Also, the TGI is 40.6 µM in the experiment on HL-60(TB) leukemia; 86.3 µM with HOP-62 NSCLC; 77.4 µM in the experiment on HS 578T breast; 3.47 µM in the experiment on LOX IMVI melanoma; over 100 µM in the experiment with NCI/ADR-RES ovarian; 55.6 µM in the experiment with PC-3 prostate. For the same compound, the TGI was found to be 34.5 µM in the experiment on SF-295 CNS and 31.3 µM with SF-539 CNS.

As to `CCN1C(=O)N(CC)C2C1NN=c1s/c(=C3\C(=O)N(CCc4ccccc4)c4ccccc43)c(=O)n12` (configuration not stated), the GI50 was 0.538 µM in the experiment on HL-60(TB) leukemia; 0.697 µM in the experiment on HOP-62 NSCLC; 0.449 µM in the experiment with HS 578T breast; 0.527 µM in the experiment on LOX IMVI melanoma; 0.378 µM in the experiment with NCI/ADR-RES ovarian; 0.415 µM with PC-3 prostate. Also, the figures for the GI50 with SF-295 CNS and in the experiment with SF-539 CNS were 0.363 µM and 0.228 µM, respectively. Also, the TGI was 1.56 µM in the experiment on HL-60(TB) leukemia; 9.97 µM with HOP-62 NSCLC; 6.37 µM in the experiment on HS 578T breast; 4.94 µM with LOX IMVI melanoma; 6.48 µM in the experiment on NCI/ADR-RES ovarian; over 21.8 µM with PC-3 prostate. Moreover, the TGI in the experiment on SF-295 CNS was found to be 7.75 µM; in the experiment with SF-539 CNS, 0.643 µM.

For the compound `O=C(O)COc1c(Cl)cc(Cl)c2cccnc12`, the TGI in the experiment with HL-60(TB) leukemia, in the experiment on HOP-62 NSCLC, in the experiment with HS 578T breast, in the experiment with LOX IMVI melanoma, with NCI/ADR-RES ovarian and with PC-3 prostate was over 100 µM in each case. The TGI in the experiment with SF-295 CNS and in the experiment with SF-539 CNS was over 100 µM in each case.

Take `CCCCn1c(=O)c2c(nc3n2CCCN3CCc2ccc(OCC(=O)NCCN(CC)CC)cc2)n(CCCC)c1=O`: the GI50 in the experiment on HL-60(TB) leukemia was 5.97 µM; with HOP-62 NSCLC, 5.75 µM; in the experiment with HS 578T breast it was 1.76 µM; in the experiment with LOX IMVI melanoma it was 0.929 µM; in the experiment with NCI/ADR-RES ovarian it was 5.42 µM; in the experiment with PC-3 prostate it was 1.19 µM. Further, the GI50 was 0.877 µM with SF-295 CNS and 1.87 µM with SF-539 CNS. Further, the TGI with HL-60(TB) leukemia was 15.6 µM; in the experiment with HOP-62 NSCLC it was 14.7 µM; with HS 578T breast, 11.2 µM; in the experiment on LOX IMVI melanoma, 1.99 µM; in the experiment with NCI/ADR-RES ovarian it was 27.9 µM; in the experiment on PC-3 prostate, 5.37 µM. The TGI with SF-295 CNS was found to be 1.95 µM; with SF-539 CNS, 7 µM.

As for `CCCCCn1sc(=O)n(Cc2ccc(CNC(=O)OCc3ccc4cccc(O)c4n3)cc2)c1=O`, the GI50 with HL-60(TB) leukemia was 2.88 µM; with HOP-62 NSCLC, 2.73 µM; with HS 578T breast, 2.17 µM; with LOX IMVI melanoma, 1.09 µM; in the experiment with NCI/ADR-RES ovarian, 1.54 µM; in the experiment on PC-3 prostate it was 1.22 µM. Besides, the GI50 in the experiment on SF-295 CNS is 6.73 µM; with SF-539 CNS it was 1.48 µM. For the same compound, the TGI with HL-60(TB) leukemia is over 100 µM; in the experiment on HOP-62 NSCLC, 14.9 µM; in the experiment with HS 578T breast it was 6.73 µM; with LOX IMVI melanoma it was 2.33 µM; in the experiment on NCI/ADR-RES ovarian, 4.41 µM; with PC-3 prostate, 2.76 µM. Besides, the TGI was found to be 20.1 µM with SF-295 CNS and 2.8 µM with SF-539 CNS.

Consider `COc1ccc(OC)c(C2SCC(=O)N2NC(=O)C(O)c2ccccc2)c1` (configuration not stated), for which the GI50 in the experiment with HOP-62 NSCLC, with HS 578T breast, in the experiment with LOX IMVI melanoma, with PC-3 prostate, in the experiment on SF-295 CNS and with SF-539 CNS was over 100 µM throughout. The TGI with HOP-62 NSCLC, in the experiment with HS 578T breast, with LOX IMVI melanoma, in the experiment on PC-3 prostate, in the experiment with SF-295 CNS and in the experiment with SF-539 CNS was over 100 µM each time.

In the case of `N/N=C1\CC(=O)NC(=O)N1`, the TGI with HL-60(TB) leukemia, in the experiment on HOP-62 NSCLC, in the experiment with HS 578T breast, in the experiment on LOX IMVI melanoma, in the experiment with NCI/ADR-RES ovarian and in the experiment on PC-3 prostate was over 100 µM throughout. For the same compound, the TGI in the experiment on SF-295 CNS was over 100 µM.

Consider `CC(=O)Oc1ccccc1C(=O)/C=C/c1cccc([N+](=O)[O-])c1`, for which the GI50 with HL-60(TB) leukemia is 3.26 µM; with HOP-62 NSCLC it was 2.5 µM; in the experiment on HS 578T breast, 1.78 µM; in the experiment with LOX IMVI melanoma, 1.56 µM; in the experiment with NCI/ADR-RES ovarian it was 3.88 µM; in the experiment on PC-3 prostate it was 3.69 µM. In addition, the results for the GI50 in the experiment on SF-295 CNS and with SF-539 CNS were 1.88 µM and 2.08 µM, respectively. Further, the TGI with HL-60(TB) leukemia amounted to 9.51 µM; in the experiment on HOP-62 NSCLC, 7.8 µM; in the experiment with HS 578T breast, 8.16 µM; in the experiment on LOX IMVI melanoma, 3.33 µM; in the experiment with NCI/ADR-RES ovarian, 18.7 µM; in the experiment on PC-3 prostate, 15.3 µM. The results for the TGI in the experiment with SF-295 CNS and in the experiment with SF-539 CNS were 4.16 µM and 4.93 µM, respectively.

As to `O=C(Oc1cccnc1)c1ccsc1Nc1ccnc(C(F)(F)F)c1`, the GI50 is 25 µM in the experiment on HOP-62 NSCLC; 3.19 µM in the experiment on LOX IMVI melanoma; 4.62 µM in the experiment on NCI/ADR-RES ovarian; 9.24 µM with PC-3 prostate; 24 µM in the experiment with SF-295 CNS. For the same compound, the TGI in the experiment on HOP-62 NSCLC is over 100 µM; with LOX IMVI melanoma, over 100 µM; in the experiment on NCI/ADR-RES ovarian, over 100 µM; in the experiment with PC-3 prostate it was 73.2 µM; with SF-295 CNS, over 100 µM.
